“Also recorded” adds a separate entry of the source.
Assays:
P300 [1] = target: T1, P300 (Homo sapiens, UniProt Q09472); experiment: P300 protein level by immunoblotting in LNCaP cells; assay type: cell-based; set-up: LNCaP or 22RV1 cells that express CBP/P300 proteins were treated with GNE-781 or the bivalent compounds; endogenous in cells; host or cells: LNCaP or 22RV1 (not given); conditions: for degradation of P300 in combination with pomalidomide, MG-132, Bortezomib or MLN4924: single dose, FIG. 8; for P300 protein levels: various concentrations, compound vs analogue that lost cereblon binding, FIG. 7A
T1 sequence (Q09472 whole entry): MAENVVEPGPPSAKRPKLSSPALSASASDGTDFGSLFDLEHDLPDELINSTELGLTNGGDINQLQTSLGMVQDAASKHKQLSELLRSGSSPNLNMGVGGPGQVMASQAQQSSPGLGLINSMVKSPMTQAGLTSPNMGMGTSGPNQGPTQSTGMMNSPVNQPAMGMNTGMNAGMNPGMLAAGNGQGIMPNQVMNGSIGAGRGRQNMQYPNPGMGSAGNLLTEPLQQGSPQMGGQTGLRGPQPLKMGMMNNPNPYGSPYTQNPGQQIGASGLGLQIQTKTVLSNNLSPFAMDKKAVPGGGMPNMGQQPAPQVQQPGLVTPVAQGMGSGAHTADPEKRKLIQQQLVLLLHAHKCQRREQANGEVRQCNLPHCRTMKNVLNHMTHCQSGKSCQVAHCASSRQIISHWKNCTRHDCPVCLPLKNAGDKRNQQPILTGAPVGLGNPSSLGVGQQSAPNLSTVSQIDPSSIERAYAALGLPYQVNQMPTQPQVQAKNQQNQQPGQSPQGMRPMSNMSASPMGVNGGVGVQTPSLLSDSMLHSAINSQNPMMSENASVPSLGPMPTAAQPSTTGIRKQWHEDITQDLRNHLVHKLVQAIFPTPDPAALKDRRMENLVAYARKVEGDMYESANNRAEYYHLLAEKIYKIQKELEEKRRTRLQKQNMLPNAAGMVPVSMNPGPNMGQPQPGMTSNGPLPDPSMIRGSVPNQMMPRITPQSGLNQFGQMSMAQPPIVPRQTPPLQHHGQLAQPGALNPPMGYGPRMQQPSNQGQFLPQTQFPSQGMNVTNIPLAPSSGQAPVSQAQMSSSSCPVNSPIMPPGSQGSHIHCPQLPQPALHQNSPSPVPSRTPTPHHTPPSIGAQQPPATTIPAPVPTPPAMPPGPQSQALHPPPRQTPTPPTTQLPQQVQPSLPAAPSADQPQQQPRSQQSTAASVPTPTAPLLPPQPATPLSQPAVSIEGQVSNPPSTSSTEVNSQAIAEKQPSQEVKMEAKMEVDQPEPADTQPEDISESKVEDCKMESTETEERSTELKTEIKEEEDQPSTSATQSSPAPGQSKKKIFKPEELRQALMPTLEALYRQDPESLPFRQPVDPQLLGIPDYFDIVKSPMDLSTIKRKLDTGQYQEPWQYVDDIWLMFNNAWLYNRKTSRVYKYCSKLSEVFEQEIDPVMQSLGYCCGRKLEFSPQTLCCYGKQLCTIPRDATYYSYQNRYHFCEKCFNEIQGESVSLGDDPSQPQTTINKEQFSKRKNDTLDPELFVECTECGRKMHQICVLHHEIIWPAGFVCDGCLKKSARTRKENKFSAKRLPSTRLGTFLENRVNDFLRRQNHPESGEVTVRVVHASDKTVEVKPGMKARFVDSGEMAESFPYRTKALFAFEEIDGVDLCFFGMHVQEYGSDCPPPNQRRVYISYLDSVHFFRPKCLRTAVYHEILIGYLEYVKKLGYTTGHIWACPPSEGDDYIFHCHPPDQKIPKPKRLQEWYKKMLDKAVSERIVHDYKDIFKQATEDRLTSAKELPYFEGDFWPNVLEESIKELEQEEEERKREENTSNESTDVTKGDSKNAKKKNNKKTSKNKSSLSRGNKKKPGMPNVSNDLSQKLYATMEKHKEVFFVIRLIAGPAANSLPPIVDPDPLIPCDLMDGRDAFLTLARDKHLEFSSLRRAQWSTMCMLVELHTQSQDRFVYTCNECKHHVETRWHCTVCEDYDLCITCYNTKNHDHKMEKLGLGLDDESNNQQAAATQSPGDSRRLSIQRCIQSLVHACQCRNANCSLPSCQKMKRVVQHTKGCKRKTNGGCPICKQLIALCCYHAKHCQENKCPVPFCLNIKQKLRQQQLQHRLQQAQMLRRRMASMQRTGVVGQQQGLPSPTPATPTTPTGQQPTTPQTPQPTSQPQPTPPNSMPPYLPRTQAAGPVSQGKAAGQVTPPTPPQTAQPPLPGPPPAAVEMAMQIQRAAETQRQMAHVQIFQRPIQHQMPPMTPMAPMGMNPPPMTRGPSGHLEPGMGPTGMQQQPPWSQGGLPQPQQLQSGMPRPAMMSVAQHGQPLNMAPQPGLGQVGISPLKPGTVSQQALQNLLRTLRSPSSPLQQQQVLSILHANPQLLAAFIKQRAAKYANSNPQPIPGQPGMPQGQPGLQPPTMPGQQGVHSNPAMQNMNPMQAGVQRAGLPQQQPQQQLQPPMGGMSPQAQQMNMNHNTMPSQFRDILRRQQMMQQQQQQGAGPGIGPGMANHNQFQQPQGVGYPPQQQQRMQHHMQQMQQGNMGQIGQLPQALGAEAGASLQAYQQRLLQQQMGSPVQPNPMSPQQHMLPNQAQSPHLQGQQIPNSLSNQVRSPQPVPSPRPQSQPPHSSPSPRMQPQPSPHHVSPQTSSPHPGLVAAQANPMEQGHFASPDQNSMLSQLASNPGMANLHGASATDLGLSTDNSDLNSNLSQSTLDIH
Protocol: (§1) Specific exemplary bivalent compounds were characterized in LNCaP or 22RV1 cells. LNCaP or 22RV1 cells that express CBP/P300 proteins were treated with GNE-781 or the bivalent compounds disclosed herein (P-001 to P-265) for indicated hours. Cells were collected, lysed and subject to immunoblotting using an antibody specific to P300 or CBP proteins. Tubulin or vinculin was included as the loading control. DMSO was used as the negative control.
(§2) LNCaP (clone FGC), 22RV1 and other cells were cultured at 37° C. with 5% CO 2 in RPMI 1640 Medium supplemented with 10% fetal bovine serum. Cells were authenticated using the short tandem repeat (STR) assays. Mycoplasma test results were negative.
(§3) Cultured cells or tissue chunks were washed with cold PBS once and lysed in cold RIPA buffer supplemented with protease inhibitors and phosphatase inhibitors (Beyotime Biotechnology). The solutions were then incubated at 4° C. for 30 minutes with gentle agitation to fully lyse cells. Cell lysates were centrifuged at 13,000 rpm for 10 minutes at 4° C. and pellets were discarded. Total protein concentrations in the lysates were determined by BCA assays (Beyotime Biotechnology). Cell lysates were mixed with Laemmli loading buffer to 1 X and heated at 99° C. for 5 min. Proteins were resolved on SDS-PAGE and visualized by chemiluminescence. Images were taken by a ChemiDoc MP Imaging system (Bio-Rad). Protein bands were quantitated using the accompanied software provided by Bio-Rad.

P300 [2] = target: T1, P300; experiment: P300 immunoblotting in 22RV1 subcutaneous xenograft tumors; assay type: in vivo, athymic nude mice; set-up: from tissue; host or cells: 22RV1 subcutaneous xenograft tumours in athymic nude mice; conditions: single dose 40 mg/kg, intraperitoneally or orally, six hours after administration; FIG. 9
Protocol: (§4) In addition to cultured cells, athymic nude mice bearing 22RV1 subcutaneous xenograft tumors at the right flank were intraperitoneally or orally treated with 40 mg/kg bivalent compounds. Six hours after drug administration, animals were sacrificed for immunoblotting of P300 and CBP in homogenized xenograft tumor masses. […] Moreover, ICR mice were orally treated with 40 mg/kg bivalent compounds. Six hours after drug administration, animals were sacrificed for immunoblotting of CBP in homogenized lung tissues.
(§5) Athymic nude mice bearing 22RV1 subcutaneous xenograft tumors at the right flank were intraperitoneally or orally treated with selected bivalent compounds at 40 mg/kg. Six hours after drug administration, animals were sacrificed, and xenograft tumors were collected for immunoblotting of P300 and CBP.
as §3
(§6) All animal experiments were performed under protocols approved by the Institutional Animal Care and Use Committee (IACUC) of Cullgen. Athymic nude mice (male, 5-weeks old) received 5 million 22RV1 cells subcutaneously inoculated at the right flank site. Twenty days following inoculation, tumors were approxmiately 500 mm^3 in size. Tumor-bearing mice were treated intraperitoneally or via oral gavage with vehicle or bivalent compounds at indicated doses. […]

CBP [3] = target: T2, CBP (Homo sapiens, UniProt Q92793); experiment: CBP immunoblotting in 22RV1 subcutaneous xenograft tumors; assay type: in vivo, athymic nude mice; set-up: from tissue; host or cells: 22RV1 subcutaneous xenograft tumours in athymic nude mice; conditions: single dose 40 mg/kg, intraperitoneally or orally, six hours after administration; FIG. 9
T2 sequence (Q92793 whole entry): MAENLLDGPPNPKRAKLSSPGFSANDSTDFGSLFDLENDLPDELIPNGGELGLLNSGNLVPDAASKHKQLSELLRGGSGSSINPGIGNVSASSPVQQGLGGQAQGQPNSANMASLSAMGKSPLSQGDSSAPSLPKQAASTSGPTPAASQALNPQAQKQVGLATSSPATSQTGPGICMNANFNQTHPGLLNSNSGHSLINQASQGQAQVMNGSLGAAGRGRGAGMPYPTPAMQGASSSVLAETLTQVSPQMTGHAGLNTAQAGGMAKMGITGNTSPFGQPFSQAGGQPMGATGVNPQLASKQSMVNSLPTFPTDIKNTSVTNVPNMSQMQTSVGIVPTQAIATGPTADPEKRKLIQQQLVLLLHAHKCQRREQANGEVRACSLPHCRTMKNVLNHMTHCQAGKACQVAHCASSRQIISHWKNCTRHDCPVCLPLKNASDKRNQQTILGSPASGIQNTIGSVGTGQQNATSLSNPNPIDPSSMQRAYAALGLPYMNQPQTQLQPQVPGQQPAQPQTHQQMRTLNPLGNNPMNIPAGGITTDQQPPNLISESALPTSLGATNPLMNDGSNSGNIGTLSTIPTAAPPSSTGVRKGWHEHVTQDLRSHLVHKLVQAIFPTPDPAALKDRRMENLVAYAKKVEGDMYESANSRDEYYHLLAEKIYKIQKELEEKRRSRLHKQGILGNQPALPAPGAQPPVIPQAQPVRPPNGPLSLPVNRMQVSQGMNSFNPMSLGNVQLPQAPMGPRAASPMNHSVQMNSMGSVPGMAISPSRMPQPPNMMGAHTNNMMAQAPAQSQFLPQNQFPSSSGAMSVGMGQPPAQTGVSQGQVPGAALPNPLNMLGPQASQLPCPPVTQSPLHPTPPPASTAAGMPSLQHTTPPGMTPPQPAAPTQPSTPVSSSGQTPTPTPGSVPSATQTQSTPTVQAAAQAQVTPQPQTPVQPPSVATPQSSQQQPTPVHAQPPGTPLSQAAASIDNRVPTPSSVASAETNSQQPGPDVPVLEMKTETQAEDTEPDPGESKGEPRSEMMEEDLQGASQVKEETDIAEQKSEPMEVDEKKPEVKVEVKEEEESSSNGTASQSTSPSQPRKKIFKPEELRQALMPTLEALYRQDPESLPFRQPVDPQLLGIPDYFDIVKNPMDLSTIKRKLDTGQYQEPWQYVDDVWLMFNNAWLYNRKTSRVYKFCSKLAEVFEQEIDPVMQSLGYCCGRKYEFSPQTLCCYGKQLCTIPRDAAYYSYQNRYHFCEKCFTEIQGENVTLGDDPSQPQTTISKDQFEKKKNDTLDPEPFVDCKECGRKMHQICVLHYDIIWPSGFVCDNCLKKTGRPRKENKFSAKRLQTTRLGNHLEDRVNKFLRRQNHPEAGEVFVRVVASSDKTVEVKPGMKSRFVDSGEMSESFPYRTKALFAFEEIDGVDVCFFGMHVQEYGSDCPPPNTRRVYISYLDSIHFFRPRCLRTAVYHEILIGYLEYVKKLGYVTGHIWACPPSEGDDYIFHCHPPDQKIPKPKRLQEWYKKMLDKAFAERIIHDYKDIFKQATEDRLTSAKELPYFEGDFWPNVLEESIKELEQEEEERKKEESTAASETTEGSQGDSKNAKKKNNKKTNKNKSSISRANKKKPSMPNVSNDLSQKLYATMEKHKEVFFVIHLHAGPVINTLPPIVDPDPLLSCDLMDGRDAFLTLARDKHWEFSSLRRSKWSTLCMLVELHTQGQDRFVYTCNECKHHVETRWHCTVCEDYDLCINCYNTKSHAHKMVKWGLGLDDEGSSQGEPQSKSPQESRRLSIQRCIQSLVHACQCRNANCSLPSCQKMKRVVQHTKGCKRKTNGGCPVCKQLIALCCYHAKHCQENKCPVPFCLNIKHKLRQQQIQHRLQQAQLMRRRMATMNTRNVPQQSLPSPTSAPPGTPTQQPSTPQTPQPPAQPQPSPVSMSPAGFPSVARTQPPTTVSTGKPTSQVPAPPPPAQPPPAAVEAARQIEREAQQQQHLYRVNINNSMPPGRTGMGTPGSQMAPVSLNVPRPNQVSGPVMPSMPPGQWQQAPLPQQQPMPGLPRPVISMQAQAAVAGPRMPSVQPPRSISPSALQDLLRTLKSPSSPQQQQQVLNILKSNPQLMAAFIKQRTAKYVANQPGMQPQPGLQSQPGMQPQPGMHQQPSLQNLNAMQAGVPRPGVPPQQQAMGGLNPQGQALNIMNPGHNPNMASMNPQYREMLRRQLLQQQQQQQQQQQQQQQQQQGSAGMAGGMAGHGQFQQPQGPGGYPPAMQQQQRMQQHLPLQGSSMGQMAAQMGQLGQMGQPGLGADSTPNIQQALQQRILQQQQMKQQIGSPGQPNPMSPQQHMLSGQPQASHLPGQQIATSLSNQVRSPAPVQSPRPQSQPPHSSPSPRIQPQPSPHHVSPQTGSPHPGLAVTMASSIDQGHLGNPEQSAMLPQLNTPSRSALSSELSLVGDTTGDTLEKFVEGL
Protocol: as §4, §5, §3, §6

CBP [4] = target: T2, CBP; experiment: CBP protein level by immunoblotting in LNCaP cells; assay type: cell-based; set-up: LNCaP or 22RV1 cells that express CBP/P300 proteins were treated with GNE-781 or the bivalent compounds; endogenous in cells; host or cells: LNCaP (clone FGC); conditions: single dose, FIG. 8
Protocol: as §1, §2, §3

P300 [5] = target: T1, P300; experiment: P300 protein level by immunoblotting in 22RV1 cells; assay type: cell-based; set-up: LNCaP or 22RV1 cells that express CBP/P300 proteins were treated with GNE-781 or the bivalent compounds; endogenous in cells; host or cells: LNCaP or 22RV1 (not given); conditions: various concentrations, compound vs analogue that lost cereblon binding, FIG. 7B
Protocol: as §1, §2
as §3, with “Proteins were resolved on SDS-PAGE and visualized by chemiluminescence. Images were taken by a ChemiDoc MP Imaging system (Bio-Rad).” left out

With `CC(=O)N1CCc2c(c(N3CCCc4cc(-c5cnn(C)c5)c(C(F)F)cc43)nn2C2CCN(C(=O)CCCCCNc3cccc4c3C(=O)N(C3CCC(=O)NC3=O)C4=O)CC2)C1` (stereo not shown) [P-100, 4-((6-(4-(5-acetyl-3-(7-(difluoromethyl)-6-(1-methyl-1H-pyrazol-4-yl)-3,4-dihydroquinolin-1(2H)-yl)-4,5,6,7-tetrahydro-1H-pyrazolo[4,3-c]pyridin-1-yl)piperidin-1-yl)-6-oxohexyl)amino)-2-(2,6-dioxopiperidin-3-yl)isoindoline-1,3-dione] the “degradation of P300 in combination with pomalidomide, MG-132, Bortezomib or MLN4924” value (“degradation of P300 in combination” for short) (P300 [1]) was “compromised; also recorded: could be neutralized”, the P300 protein levels (P300 [1]) was “reduced P300 protein levels in a concentration-dependent manner” and the “P300 protein levels in xenograft tumors” value (P300 [2]) was “significantly reducing”. For the same molecule, the “CBP protein levels in xenograft tumors” value (CBP [3]) was “significantly reducing”, the “degradation of CBP in combination with pomalidomide, MG-132, Bortezomib or MLN4924” value (“degradation of CBP in combination” for short) (CBP [4]) was “compromised; also recorded: could be neutralized” and the P300 protein levels (P300 [5]) was “reduced P300 protein levels in a concentration-dependent manner”.
With `CNC(=O)N1CCc2c(c(N3CCCc4cc(-c5cnn(C)c5)c(C(F)F)cc43)nn2C2CCN(C(=O)CCCCCCCNc3ccc4c(c3)C(=O)N(C3CCC(=O)NC3=O)C4=O)CC2)C1` (stereo not shown) [P-007, 3-(7-(difluoromethyl)-6-(1-methyl-1H-pyrazol-4-yl)-3,4-dihydroquinolin-1(2H)-yl)-1-(1-(8-((2-(2,6-dioxopiperidin-3-yl)-1,3-dioxoisoindolin-5-yl)amino)octanoyl)piperidin-4-yl)-N-methyl-1,4,6,7-tetrahydro-5H-pyrazolo[4,3-c]pyridine-5-carboxamide] the “degradation of P300 in combination” value (P300 [1]) was “compromised; also recorded: could be neutralized”, the “P300 protein levels in xenograft tumors” value (P300 [2]) was “significantly reducing” and the “CBP protein levels in xenograft tumors” value (CBP [3]) was “significantly reducing”. For the same molecule, the “degradation of CBP in combination” value (CBP [4]) was “compromised; also recorded: could be neutralized”.
With `CNC(=O)N1CCc2c(c(N3CCCc4cc(-c5cnn(C)c5)c(C(F)F)cc43)nn2C2CCN(C(=O)CCCCCNc3cccc4c3C(=O)N(C3CCC(=O)NC3=O)C4=O)CC2)C1` (stereo not shown) [P-034, 3-(7-(difluoromethyl)-6-(1-methyl-1H-pyrazol-4-yl)-3,4-dihydroquinolin-1(2H)-yl)-1-(1-(6-((2-(2,6-dioxopiperidin-3-yl)-1,3-dioxoisoindolin-4-yl)amino)hexanoyl)piperidin-4-yl)-N-methyl-1,4,6,7-tetrahydro-5H-pyrazolo[4,3-c]pyridine-5-carboxamide] the “degradation of P300 in combination” value (P300 [1]) was “compromised; also recorded: could be neutralized”, the P300 protein levels (P300 [1]) was “a chemical modification that disrupted cereblon binding abolished P300 degradation” and the “P300 protein levels in xenograft tumors” value (P300 [2]) was “significantly reducing”. For the same molecule, the “CBP protein levels in xenograft tumors” value (CBP [3]) was “significantly reducing”, the “degradation of CBP in combination” value (CBP [4]) was “compromised; also recorded: could be neutralized” and the P300 protein levels (P300 [5]) was “a chemical modification that disrupted cereblon binding abolished P300 degradation”.
